Here are results for 23 compounds from ChEMBL document CHEMBL1697731, “Cheminformatics analysis of assertions mined from literature that describe drug-induced liver injury in different species” (Chem Res Toxicol, 2010).

SMILES strings stand for the structures.

Series [1] concerns Hepatotoxicity. In words: Literature-mined compound from Fourches et al multi-species drug-induced liver injury (DILI) dataset, effect in humans. The settings on record: human.
The subject of series [2] is Hepatotoxicity. In words: Literature-mined compound from Fourches et al multi-species drug-induced liver injury (DILI) dataset, effect in rodents. The following applies: rodentia.
Series [3] deals with Hepatotoxicity. As to the kind of experiment: Literature-mined compound from Fourches et al multi-species drug-induced liver injury (DILI) dataset, effect in non-rodents.

With `C[C@]12CC[C@@H]3c4ccc(OC(=O)N(CCCl)CCCl)cc4CC[C@H]3[C@@H]1CC[C@@H]2O` [ESTRAMUSTINE], the Hepatotoxicity entry with Hepatotoxicity [1] is “drug-induced liver injury reported”; in the series with Hepatotoxicity [2], “no drug-induced liver injury reported”; with Hepatotoxicity [3], “no drug-induced liver injury reported”.
On to `C[C@]12CC[C@@H]3c4ccc(O)cc4CC[C@H]3[C@@H]1C[C@@H](O)[C@@H]2O` [ESTRIOL], for which the Hepatotoxicity result is reported as “no drug-induced liver injury reported” in the series with Hepatotoxicity [1], “drug-induced liver injury reported” in the series with Hepatotoxicity [2] and “no drug-induced liver injury reported” in the series on Hepatotoxicity [3].
On to `C[C@]12CC[C@@H]3c4ccc(OS(=O)(=O)O)cc4CC[C@H]3[C@@H]1CCC2=O` [ESTRONE SULFURIC ACID], for which the results for the Hepatotoxicity entry in the series on Hepatotoxicity [1], in the series on Hepatotoxicity [2] and with Hepatotoxicity [3] were “no drug-induced liver injury reported”, “drug-induced liver injury reported” and “no drug-induced liver injury reported”, respectively.
On to `C[C@]12CC[C@@H]3c4ccc(O)cc4CC[C@H]3[C@@H]1CCC2=O` [ESTRONE], for which the Hepatotoxicity result is given as “drug-induced liver injury reported” with Hepatotoxicity [1], “drug-induced liver injury reported” in the series on Hepatotoxicity [2] and “no drug-induced liver injury reported” in the series on Hepatotoxicity [3].
As for `C=C(CC)C(=O)c1ccc(OCC(=O)O)c(Cl)c1Cl` [ETHACRYNIC ACID], the Hepatotoxicity entry was “no drug-induced liver injury reported” with Hepatotoxicity [1], “drug-induced liver injury reported” in the series on Hepatotoxicity [2] and “drug-induced liver injury reported” with Hepatotoxicity [3].
With `C#C[C@]1(O)CC[C@H]2[C@@H]3CCc4cc(O)ccc4[C@H]3CC[C@@]21C` [ETHINYL ESTRADIOL], the Hepatotoxicity entry in the series on Hepatotoxicity [1], in the series on Hepatotoxicity [2] and in the series on Hepatotoxicity [3] was “drug-induced liver injury reported” throughout.
With `CCc1cc(C(N)=S)ccn1` [ETHIONAMIDE], the values for the Hepatotoxicity entry in the series with Hepatotoxicity [1] (Liver), in the series on Hepatotoxicity [2] (Liver) and with Hepatotoxicity [3] (Liver) were “drug-induced liver injury reported”, “drug-induced liver injury reported” and “no drug-induced liver injury reported”, respectively.
For the compound `CCOc1ccc2nc(S(N)(=O)=O)sc2c1` [ETHOXZOLAMIDE], the Hepatotoxicity result in the series on Hepatotoxicity [1] is listed as “no drug-induced liver injury reported”; in the series with Hepatotoxicity [2] it was “drug-induced liver injury reported”; in the series with Hepatotoxicity [3], “no drug-induced liver injury reported”.
Turning to `CCc1cccc2c3c([nH]c12)C(CC)(CC(=O)O)OCC3` (centres undefined) [ETODOLAC], the Hepatotoxicity result in the series on Hepatotoxicity [1] is given as “drug-induced liver injury reported”; in the series with Hepatotoxicity [2], “drug-induced liver injury reported”; in the series on Hepatotoxicity [3], “no drug-induced liver injury reported”.
Turning to `CCOC(=O)c1cncn1[C@H](C)c1ccccc1` [ETOMIDATE], the Hepatotoxicity entry is recorded as “drug-induced liver injury reported” in the series on Hepatotoxicity [1], “drug-induced liver injury reported” with Hepatotoxicity [2] and “no drug-induced liver injury reported” in the series with Hepatotoxicity [3].
As for `CCOC(=O)[C@@]1(CCCCCCOc2ccc(Cl)cc2)CO1` [ETOMOXIR], the Hepatotoxicity result with Hepatotoxicity [1], in the series on Hepatotoxicity [2] and with Hepatotoxicity [3] was “drug-induced liver injury reported” throughout.
In the case of `COc1cc([C@@H]2c3cc4c(cc3[C@@H](O[C@@H]3O[C@@H]5CO[C@@H](C)O[C@H]5[C@H](O)[C@H]3O)[C@H]3COC(=O)[C@H]23)OCO4)cc(OC)c1O` [ETOPOSIDE], the Hepatotoxicity entry is “drug-induced liver injury reported” in the series with Hepatotoxicity [1] (Liver), “drug-induced liver injury reported” in the series with Hepatotoxicity [2] (Liver) and “no drug-induced liver injury reported” in the series with Hepatotoxicity [3] (Liver).
As for `CCOC(=O)/C=C(C)/C=C/C=C(C)/C=C/c1c(C)cc(OC)c(C)c1C` [ETRETINATE], the Hepatotoxicity result in the series with Hepatotoxicity [1] is listed as “drug-induced liver injury reported”; in the series with Hepatotoxicity [2], “no drug-induced liver injury reported”; in the series on Hepatotoxicity [3], “no drug-induced liver injury reported”.
Regarding `Cc1cc(-c2ccc(/N=N/c3ccc4c(S(=O)(=O)[O-])cc(S(=O)(=O)[O-])c(N)c4c3O)c(C)c2)ccc1/N=N/c1ccc2c(S(=O)(=O)[O-])cc(S(=O)(=O)[O-])c(N)c2c1O.[Na+].[Na+].[Na+].[Na+]` [EVANS BLUE], the Hepatotoxicity entry with Hepatotoxicity [1] is reported as “no drug-induced liver injury reported”; in the series on Hepatotoxicity [2], “drug-induced liver injury reported”; in the series with Hepatotoxicity [3], “no drug-induced liver injury reported”.
Consider `CC1=C(CC(=O)O)c2cc(F)ccc2/C1=C\c1ccc(S(C)(=O)=O)cc1` [EXISULIND], for which the results for the Hepatotoxicity entry in the series on Hepatotoxicity [1], in the series with Hepatotoxicity [2] and in the series on Hepatotoxicity [3] were “drug-induced liver injury reported”, “no drug-induced liver injury reported” and “no drug-induced liver injury reported”, respectively.
Consider `O=C1[C@H](CC[C@H](O)c2ccc(F)cc2)[C@@H](c2ccc(O)cc2)N1c1ccc(F)cc1` [EZETIMIBE], for which the Hepatotoxicity result with Hepatotoxicity [1], in the series on Hepatotoxicity [2] and with Hepatotoxicity [3] was “drug-induced liver injury reported” each time.
With `CC(=O)OCC(CCn1cnc2cnc(N)nc21)COC(C)=O` [FAMCICLOVIR], the figures for the Hepatotoxicity entry in the series with Hepatotoxicity [1], with Hepatotoxicity [2] and in the series with Hepatotoxicity [3] were “drug-induced liver injury reported”, “no drug-induced liver injury reported” and “no drug-induced liver injury reported”, respectively.
In the case of `NC(N)=Nc1nc(CSCCC(N)=NS(N)(=O)=O)cs1` [FAMOTIDINE], the Hepatotoxicity entry in the series on Hepatotoxicity [1] (Liver) is given as “drug-induced liver injury reported”; in the series with Hepatotoxicity [2] (Liver), “drug-induced liver injury reported”; in the series on Hepatotoxicity [3] (Liver), “no drug-induced liver injury reported”.
Take `COc1ccc2cc1Oc1ccc(cc1)C[C@H]1c3cc(c(OC)cc3CCN1C)Oc1c(OC)c(OC)cc3c1[C@H](C2)N(C)CC3` [FANCHININ]: the Hepatotoxicity result in the series with Hepatotoxicity [1] is “drug-induced liver injury reported”; in the series on Hepatotoxicity [2] it was “drug-induced liver injury reported”; in the series with Hepatotoxicity [3] it was “no drug-induced liver injury reported”.
In the case of `O=S(=O)(c1cccc2cnccc12)N1CCCNCC1` [FASUDIL], the values for the Hepatotoxicity entry in the series with Hepatotoxicity [1], with Hepatotoxicity [2] and with Hepatotoxicity [3] were “drug-induced liver injury reported”, “drug-induced liver injury reported” and “no drug-induced liver injury reported”, respectively.
As to `NC(=O)OCC(COC(N)=O)c1ccccc1` [FELBAMATE], the Hepatotoxicity result is given as “drug-induced liver injury reported” in the series with Hepatotoxicity [1], “drug-induced liver injury reported” in the series with Hepatotoxicity [2] and “no drug-induced liver injury reported” in the series on Hepatotoxicity [3].
In the case of `CCOC(=O)C1=C(C)NC(C)=C(C(=O)OC)C1c1cccc(Cl)c1Cl` (centres undefined) [FELODIPINE], the Hepatotoxicity entry with Hepatotoxicity [1] is listed as “drug-induced liver injury reported”; with Hepatotoxicity [2], “no drug-induced liver injury reported”; with Hepatotoxicity [3], “no drug-induced liver injury reported”.
With `NCCCC[C@H](NC(=O)[C@@H]1CCCN1C(=O)[C@@H]1CSSC[C@H](N)C(=O)N[C@@H](Cc2ccccc2)C(=O)N[C@@H](Cc2ccccc2)C(=O)N[C@@H](CCC(N)=O)C(=O)N[C@@H](CC(N)=O)C(=O)N1)C(=O)NCC(N)=O` [FELYPRESSIN], the Hepatotoxicity entry is listed as “no drug-induced liver injury reported” with Hepatotoxicity [1], “no drug-induced liver injury reported” in the series with Hepatotoxicity [2] and “drug-induced liver injury reported” in the series with Hepatotoxicity [3].
